Reference: ChEMBL document CHEMBL5126503, “Renieramycin-type alkaloids from marine-derived organisms: Synthetic chemistry, biological activity and structural modification” (Eur J Med Chem, 2021)
Converted amounts (≈) assume the structure as drawn. Values belong to the compound of their own block, whether it stands above or below them.

How the values were obtained:
[1] = tested on: A549; assay: Cytotoxicity against human A549 cells assessed as cell growth inhibition; format: functional, cell-based
[2] = tested on: HCT-8; assay: Antiproliferative activity against human HCT-8 cells assessed as cell growth inhibition; format: functional, cell-based
[3] = tested on: MCF7; assay: Antiproliferative activity against human MCF7 cells assessed as cell growth inhibition; format: functional, cell-based
[4] = tested on: A2780; assay: Antiproliferative activity against human A2780 cells assessed as cell growth inhibition; format: functional, cell-based
[5] = tested on: KETR3; assay: Antiproliferative activity against human KETR3 cells assessed as cell growth inhibition; format: functional, cell-based
[6] = tested on: Bel-7402; assay: Antiproliferative activity against human Bel-7402 cells assessed as cell growth inhibition; format: functional, cell-based
[7] = tested on: BGC-823; assay: Antiproliferative activity against human BGC-823 cells assessed as cell growth inhibition; format: functional, cell-based
[8] = Antiproliferative activity against human HELF cells assessed as cell growth inhibition; format: toxicity, cell-based
[9] = tested on: HeLa; assay: Antiproliferative activity against human HeLa cells assessed as cell growth inhibition; format: functional, cell-based
[10] = tested on: KB; assay: Antiproliferative activity against human KB cells assessed as cell growth inhibition; format: functional, cell-based
[11] = tested on: HL-60; assay: Cytotoxicity against human HL-60 cells assessed as cell growth inhibition; format: functional, cell-based
[12] = Cytotoxicity against human HEK293 cells assessed as cell growth inhibition; format: toxicity, cell-based
[13] = tested on: HCT-116; assay: Cytotoxicity against human HCT-116 cells assessed as cell growth inhibition incubated for 4 days by Cell counting kit-8 assay; format: functional, cell-based; settings: HCT-116, 96 h
[14] = tested on: QG-56; assay: Cytotoxicity against human QG-56 cells assessed as cell growth inhibition incubated for 4 days by Cell counting kit-8 assay; format: functional, cell-based; settings: QG-56, 96 h
[15] = tested on: DU-145; assay: Cytotoxicity against human DU-145 cells assessed as cell growth inhibition incubated for 4 days by Cell counting kit-8 assay; format: functional, cell-based; settings: DU-145, 96 h
[16] = tested on: HCT-116; assay: Cytotoxicity against human HCT-116 cells assessed as cell growth inhibition; format: functional, cell-based
[17] = tested on: QG-56; assay: Cytotoxicity against human QG-56 cells assessed as cell growth inhibition; format: functional, cell-based
[18] = tested on: T47D; assay: Cytotoxicity against human T47D cells assessed as cell growth inhibition; format: functional, cell-based
[19] = tested on: ASPC1; assay: Cytotoxicity against human ASPC1 cells assessed as cell growth inhibition; format: functional, cell-based
[20] = tested on: DU-145; assay: Growth inhibition of human DU-145 cells; format: functional
[21] = Cytotoxicity against human U373 MG cells assessed as cell growth inhibition incubated for 4 to 72 hrs by MTT assay; format: functional, cell-based, U-373MG ATCC
[22] = tested on: HCT-116; assay: Antiproliferative activity against human HCT-116 cells assessed as cell growth inhibition by MTT colorimetric assay; format: functional, cell-based
[23] = tested on: MDA-MB-435; assay: Antiproliferative activity against human MDA-MB-435 cells assessed as cell growth inhibition by MTT colorimetric assay; format: functional, cell-based
[24] = tested on: MCF7; assay: Cytotoxicity against human MCF7 cells assessed as cell growth inhibition incubated for 72 hrs by MTT assay; format: functional, cell-based; settings: MCF7, 72 h
[25] = tested on: Leishmania amazonensis; assay: Antileishmanial activity against Leishmania amazonensis promastigotes assessed as reduction on parasite growth by green fluorescent protein based microplate reader assay; format: functional, organism-based
[26] = tested on: QG-56; assay: Growth inhibition of human QG-56 cells; format: functional
[27] = tested on: HCT-116; assay: Growth inhibition of human HCT-116 cells; format: functional
[28] = tested on: BGC-823; assay: Antiproliferative activity against human BGC-823 cells assessed as cell growth inhibition by MTT assay; format: functional, cell-based
[29] = tested on: A549; assay: Antiproliferative activity against human A549 cells assessed as cell growth inhibition by MTT assay; format: functional, cell-based
[30] = tested on: KB; assay: Antiproliferative activity against human KB cells assessed as cell growth inhibition by MTT assay; format: functional, cell-based
[31] = tested on: HCT-8; assay: Antiproliferative activity against human HCT-8 cells assessed as cell growth inhibition by MTT assay; format: functional, cell-based
[32] = tested on: HeLa; assay: Antiproliferative activity against human HeLa cells assessed as cell growth inhibition by MTT assay; format: functional, cell-based
[33] = tested on: P388; assay: Cytotoxicity against mouse P388 cells assessed as cell growth inhibition; format: functional, cell-based
[34] = Cytotoxicity against mouse NIH3T3 cells assessed as cell growth inhibition at 50 ng/ml; format: toxicity, cell-based
[35] = tested on: Melanoma cell line; assay: Cytotoxicity against human Melanoma cell line assessed as cell growth inhibition; format: functional, cell-based
[36] = tested on: HT-29; assay: Cytotoxicity against human HT-29 cells assessed as cell growth inhibition; format: functional, cell-based

IC50 [2]: 2.12 nM
IC50 [3]: 2.12 nM
IC50 [4]: 2.12 nM
IC50 [6]: 2.12 nM
IC50 [7]: 2.12 nM
IC50 [9]: 2.12 nM
IC50 [10]: 2.12 nM
Compound: COC1=C(C)C(=O)C2=C(C1=O)[C@@H]1[C@@H]3CC4=C(C(=O)C(OC)=C(C)C4=O)[C@H](COC(=O)C(=O)CNC(=O)c4ccccc4)N3[C@@H](C#N)[C@H](C2)N1C
IC50 [1]: 2.12 nM
IC50 [5]: 2.12 nM
IC50 [8]: 2.12 nM

Compound: C/C=C(/C)C(=O)OC[C@H]1C2=C(C[C@H]3[C@H]4C5=C(C(=O)C(C)=C(OC)C5=O)[C@H](OCC)[C@@H]([C@H](CC(C)=O)N13)N4C)C(=O)C(C)=C(O)C2=O
IC50 [1]: > 100000 nM
IC50 [11]: > 100000 nM

Compound: COC1=C(C)C(=O)C2=C(C1=O)[C@@H]1[C@@H]3CC4=C(C(=O)C(OC)=C(C)C4=O)[C@H](CO)N3[C@@H](CC(C)=O)[C@H](C2=O)N1C
IC50 [12]: 1000 nM
IC50 [1]: 6200 nM
IC50 [11]: 2500 nM

Compound: COC1=C(C)C(=O)C2=C(C1=O)[C@H](CO)N1[C@@H](C#N)[C@@H]3C(=O)c4c(O)c(C)c(OC)c(O)c4[C@H]([C@@H]1C2)N3C
IC50 [13]: 448 nM
IC50 [14]: 448 nM
IC50 [15]: 448 nM

Compound: C/C=C(/C)C(=O)OC[C@H]1c2c(c(O)c(C)c3c2OCO3)C[C@H]2[C@H]3C4=C(C[C@@H]([C@H](C#N)N12)N3C)C(=O)C(C)=C(OC)C4=O
IC50 [16]: 39 nM
IC50 [17]: 77 nM
IC50 [18]: 4.7 nM
IC50 [19]: 98 nM

Compound: CC(C)C[C@H](NC(=O)[C@H](Cc1ccccc1)NC(=O)c1cnccn1)B(O)O [BORTEZOMIB]
IC50 [12]: 14000 nM

Compound: C/C=C(/C)C(=O)OC[C@H]1C2=C(C[C@H]3[C@H]4C5=C(C[C@@H]([C@H](C#N)N13)N4C)C(=O)C(C)=C(OC)C5=O)C(=O)C(C)=C(OC)C2=O [RENIERAMYCIN M]
GI50 [20]: 1700 nM
IC50 [21]: 3.1 nM
IC50 [18]: 0.84 nM
IC50 [22]: 16.4 nM
IC50 [23]: 6.3 nM
IC50 [24]: 6 nM
IC50 [19]: 20 nM
IC50 [14]: 11 nM

Compound: C/C=C(/C)C(=O)OC[C@H]1C2=C(C[C@H]3[C@H]4C5=C(C(=O)C(C)=C(OC)C5=O)[C@H](O)[C@@H](CN13)N4C)C(=O)C(C)=C(OC)C2=O
IC50 [25]: 0.2 µg/mL (≈ 0.353 µM)

Compound: COC1=C(C)C(=O)C2=C(C1=O)[C@H]1CN(Cc3ccccc3)[C@@H](C#N)[C@H](C2)N1C
IC50 [13]: 17 nM
IC50 [14]: 17 nM

GI50 [27]: 1100 nM
GI50 [20]: 1300 nM
IC50 [28]: 3500 nM
IC50 [29]: 3500 nM
IC50 [30]: 3500 nM
IC50 [31]: 3500 nM
IC50 [32]: 3800 nM
Compound: C/C=C(/C)C(=O)OC[C@H]1C2=C(C[C@H]3[C@H]4C5=C(C[C@@H](C(=O)N13)N4C)C(=O)C(C)=C(OC)C5=O)C(=O)C(C)=C(OC)C2=O [(-)-RENIERAMYCIN G]
GI50 [26]: 1300 nM

Compound: COC1=C(C)C(=O)C2=C(C1=O)[C@@H]1[C@@H]3CC4=C(C(=O)C(OC)=C(C)C4=O)[C@H](COC(C)=O)N3[C@@H](O)[C@H](C2)N1C
IC50 [33]: 0.0125 µg/mL (≈ 0.0237 µM)
inhibition at 50 ng/ml [34]: 100%
IC50 [1]: 0.0125 µg/mL
IC50 [35]: 0.0125 µg/mL (≈ 0.0237 µM)
IC50 [36]: 0.0125 µg/mL (≈ 0.0237 µM)
IC50 [13]: 0.57 nM
IC50 [14]: 0.76 nM
IC50 [15]: 0.49 nM
